Earlier results, collected in patent US20130071326A1, “UNIVERSAL CELL-DIRECTED THERANOSTICS” (Board of Regents of the University of Texas System, priority 2010, published 2013).

Tested on: tumor
Details: conventional DOX treatments, at best

accumulation of the drug at the tumor: 0.8 to 5 µg
SMILES: COc1cccc2c1C(=O)c1c(O)c3c(c(O)c1C2=O)C[C@@](O)(C(=O)CO)C[C@@H]3O[C@H]1C[C@H](N)[C@H](O)[C@H](C)O1 [DOX, doxorubicin]
